Measurements: US8389739B1, “Modulators of retinoid-related orphan receptor gamma” (Orphagen Pharmaceuticals, priority 2006, dated 2013)
“And” between values parts separate entries of the source, which are not always exact repeats. Identical values can stand only once. Like-named read-outs stand apart in the source and are kept apart here.

What was measured:
Type in all cases: cell-based
mRORγ = biological target: T1, mRORγ (Mus musculus, UniProt P51450); assay: Transcriptional assay, Gal4-mRORγ with luciferase reporter in CHO cells
T1 construct: expressed in transfected cells; host or cells: CHO cells, transient transfection
Experimental: The complete Gal4-mRORγ nucleotide sequence is shown below:
A firefly luciferase reporter gene for Gal4 DBD hybrid receptors, such as Gal4-RORγ, contains five copies of the Gal4 17-mer response element in its promoter and the coding sequence for firefly luciferase (pG5-luc, Promega). CHO (Chinese Hamster Ovary) cells were cultured in Ham's F12 medium supplemented with 10% fetal calf serum (Gemini Biologicals), 10 μg/ml penicillin and streptomycin, and were maintained in a humidified 37° C. incubator (Thermo Electron, Steri-Cycle) with 5% CO2. 24 hours before transfection, cells were plated in T175 flasks (5×10^6 cells/flask) or T75 flasks (1.7×10^6 cells/flask). Transient transfection of CHO cells was performed using TransIT-CHO reagents (Minis, Madison, Wis.) with a mixing ratio of 2:6:1 between plasmid DNA (in μg), TransIT-CHO (in μl) and CHO-mojo (in μl).
Plates are maintained at 37° C. in a humidified atmosphere with 7% CO2 overnight. Four (4) hours after cell seeding, compounds dissolved in DMSO at 10 mM were added to cells at final concentrations of 20 micromolar (μM) to 20 nanomolar (nM) in 0.2% DMSO in triplicate plates. Approximately 40 hours later, cytotoxicity in the assay well was characterized by addition of the dye resazurin (O'Brien, Wilson et al. 2000) to a final concentration of 3 μM. […] Percent viability was determined as 2 hour fluorescence, minus background at t=0 hours, normalized to DMSO controls. For detection of luciferase activity, media was removed from plates after the measurement of resazurin conversion, and SteadyLite luciferase reagent (Perkin-Elmer) was added (30 μl/well). Luminescence is detected with a Victor 2-V plate reader (Perkin-Elmer) and normalized to luciferase activity of DMSO control wells alone.

[1] = biological target: T2, hERα (Estrogen receptor-alpha) (Homo sapiens, UniProt P03372); assay: Crossreactive receptor transcriptional assay (Gal4 hybrid)
T2 construct: 249-595; expressed in transfected cells; host or cells: CHO cells, transient transfection
T2 sequence (P03372 249-595): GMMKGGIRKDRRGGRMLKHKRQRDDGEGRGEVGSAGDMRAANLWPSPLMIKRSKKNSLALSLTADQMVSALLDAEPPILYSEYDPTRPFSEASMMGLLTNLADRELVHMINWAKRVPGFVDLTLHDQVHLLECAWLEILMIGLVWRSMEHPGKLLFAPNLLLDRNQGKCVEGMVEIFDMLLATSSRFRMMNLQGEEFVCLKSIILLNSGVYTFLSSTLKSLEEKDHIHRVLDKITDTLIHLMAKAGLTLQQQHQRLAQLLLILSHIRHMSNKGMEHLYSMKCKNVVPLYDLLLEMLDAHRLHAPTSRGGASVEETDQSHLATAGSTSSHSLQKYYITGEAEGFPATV

hPPARδ = biological target: T3, hPPARδ (Homo sapiens, UniProt Q03181); assay: as above
T3 construct: 138-441; expressed in transfected cells; host or cells: CHO cells, transient transfection
T3 sequence (Q03181 138-441): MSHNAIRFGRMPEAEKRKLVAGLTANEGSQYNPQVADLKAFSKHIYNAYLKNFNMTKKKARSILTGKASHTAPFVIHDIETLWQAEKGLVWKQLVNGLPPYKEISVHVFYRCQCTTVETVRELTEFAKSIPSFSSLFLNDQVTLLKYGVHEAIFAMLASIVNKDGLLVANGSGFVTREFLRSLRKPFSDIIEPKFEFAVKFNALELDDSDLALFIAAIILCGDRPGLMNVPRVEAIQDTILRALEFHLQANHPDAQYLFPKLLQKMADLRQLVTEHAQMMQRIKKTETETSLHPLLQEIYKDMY

[2] = biological target: T4, hRARα (retinoic acid receptor alpha) (Homo sapiens, UniProt P10276); assay: as above
T4 construct: 156-462; expressed in transfected cells; host or cells: CHO cells, transient transfection
T4 sequence (P10276 156-462): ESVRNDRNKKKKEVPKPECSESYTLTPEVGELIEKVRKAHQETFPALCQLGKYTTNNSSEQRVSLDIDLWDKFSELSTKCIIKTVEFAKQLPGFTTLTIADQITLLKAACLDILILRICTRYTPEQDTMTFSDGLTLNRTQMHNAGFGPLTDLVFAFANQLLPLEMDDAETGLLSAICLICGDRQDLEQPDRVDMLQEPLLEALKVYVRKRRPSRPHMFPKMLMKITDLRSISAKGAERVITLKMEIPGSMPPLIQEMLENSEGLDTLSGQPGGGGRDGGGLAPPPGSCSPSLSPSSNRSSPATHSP

[3] = Table 4A, medians of two or more assays, unit inferred, read-out: EC50 Transcriptional
[4] = read-out: EC50 in the transcriptional assay for RORγ
[5] = Table 6, read-out: Potency (EC50) at hERα
[6] = Table 6, RORγ ligands: no significant activity at 20 μM, read-out: Potency (EC50) at hPPARδ
[7] = Table 6, read-out: Potency (EC50) at hRARα

T1 sequence (P51450 with tags, fused parts or gaps): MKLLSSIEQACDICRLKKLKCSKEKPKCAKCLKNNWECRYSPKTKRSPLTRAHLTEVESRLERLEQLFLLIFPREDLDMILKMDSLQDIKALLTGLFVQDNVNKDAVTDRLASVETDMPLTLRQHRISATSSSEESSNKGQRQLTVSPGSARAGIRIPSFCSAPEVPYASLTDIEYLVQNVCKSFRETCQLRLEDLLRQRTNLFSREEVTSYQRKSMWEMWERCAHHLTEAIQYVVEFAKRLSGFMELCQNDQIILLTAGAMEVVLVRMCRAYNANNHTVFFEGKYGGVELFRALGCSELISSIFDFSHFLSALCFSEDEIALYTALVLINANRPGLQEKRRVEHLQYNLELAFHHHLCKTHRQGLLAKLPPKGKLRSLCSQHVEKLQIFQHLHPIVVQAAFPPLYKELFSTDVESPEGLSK

| EC50 (mRORγ; [3]) [µM] | EC50 [1, 5] [µM] | EC50 (hPPARδ; [6]) [µM] | EC50 [2, 7] [µM] | EC50 (mRORγ; Table 1, antagonists, inhibition of basal Gal4-mRORγ transcription in CHO cells, read-out: Assay EC50 in micromolar at mRORγ Transcriptional) [µM] | EC50 (mRORγ; Table 7, taken from Table 1, read-out: Assay EC50 in micromolar at mRORγ Transcriptional) [µM] | Compound | EC50 (mRORγ; [4]) | EC50 (mRORγ; Table 3, steroidal antagonists, read-out: Assay EC50 in micromolar transcriptional) [µM] | EC50 [1] [µM] | EC50 (hPPARδ) [µM] | EC50 [2] [µM] | EC50 (mRORγ; Table 2, agonists, antagonist OR-376 (1.5 μM) added to reduce basal transcriptional activity, read-out: EC50 in micromolar at mRORγ Transcriptional) [µM] |
| --- | --- | --- | --- | --- | --- | --- | --- | --- | --- | --- | --- | --- |
|  | > 10 | > 10 | > 10 |  |  | O=S(=O)(c1ccccc1)N(CC(F)(F)F)c1ccc(C(O)(C(F)(F)F)C(F)(F)F)cc1 [Compound T0901317, N-(2,2,2-Trifluoro-ethyl)-N-[4-(2,2,2-trifluoro-1-hydroxy-1-trifluoromethyl-ethyl)-phenyl]-benzenesulfonamide, reference compound] |  |  |  |  |  |  |
|  |  |  |  |  |  | C[C@@H]1CC[C@@]2(OC1)O[C@H]1C[C@H]3[C@@H]4CC[C@H]5C[C@@H](O)CC[C@]5(C)[C@H]4C[C@@H](O)[C@]3(C)[C@H]1[C@@H]2C [OR-885, 5α,20α, 22α, 25D-SPIROSTAN-3β, 12β-DIOL] | < 1 µM | 0.2 | > 10 | > 10 | > 10 |  |
|  | > 10 | > 10 | > 10 | 0.26 | 0.26 | CCN(c1ccc(C(O)(C(F)(F)F)C(F)(F)F)cc1)S(=O)(=O)c1ccc([N+](=O)[O-])cc1 [OR-1050, N-Ethyl-4-nitro-N-[4-(2,2,2-trifluoro-1-hydroxy-1-trifluoromethyl-ethyl)-phenyl]-benzenesulfonamide] | < 1 µM and 0.3 µM |  |  |  |  |  |
| 0.33 | > 10 | > 10 | > 10 |  |  | COc1c(C=NNc2nc(N3CCCCC3)nc(N3CCCCC3)n2)cccc1[N+](=O)[O-] [OR-2161, N-(4,6-Di-piperidin-1-yl-[1,3,5]triazin-2-yl)-N′-(2-methoxy-3-nitro-benzylidene)-hydrazine] |  |  |  |  |  |  |
| 1.46 | > 10 | > 10 | > 10 |  |  | CCn1c(CNc2ccc(Cl)cc2)nnc1SCC(=O)Nc1cccc2ccccc12 [OR-133008, 2-{5-[(4-Chloro-phenylamino)-methyl]-4-ethyl-4H-[1,2,4]triazol-3-ylsulfanyl}-N-naphthalen-1-yl-acetamide] |  |  |  |  |  |  |

| Compound | EC50 (mRORγ; [3]) [µM] | EC50 [1, 5] [µM] | EC50 (hPPARδ; [6]) [µM] | EC50 [2, 7] [µM] | EC50 (mRORγ; Table 1, antagonists, inhibition of basal Gal4-mRORγ transcription in CHO cells, read-out: Assay EC50 in micromolar at mRORγ Transcriptional) [µM] | EC50 (mRORγ; Table 7, taken from Table 1, read-out: Assay EC50 in micromolar at mRORγ Transcriptional) [µM] | EC50 (mRORγ; [4]) | EC50 (mRORγ; Table 3, steroidal antagonists, read-out: Assay EC50 in micromolar transcriptional) [µM] | EC50 [1] [µM] | EC50 (hPPARδ) [µM] | EC50 [2] [µM] | EC50 (mRORγ; Table 2, agonists, antagonist OR-376 (1.5 μM) added to reduce basal transcriptional activity, read-out: EC50 in micromolar at mRORγ Transcriptional) [µM] |
| --- | --- | --- | --- | --- | --- | --- | --- | --- | --- | --- | --- | --- |
| CC(=O)O[C@H]1CC[C@@]2(C)C(CC[C@]3(C)C2C(=O)C=C2C4[C@@H](C)[C@H](C)CC[C@]4(C(=O)O)CC[C@]23C)C1(C)C (stereo in doubt) [OR-13571, 10-Acetoxy-1,2,6a,6b,9,9,12a-heptamethyl-13-oxo-1,3,4,5,6,6a,6b,7,8,8a,9,10,11,12,12a,12b,13,14b-octadecahydro-2H-picene-4a-carboxylic acid] | 0.27 | > 10 | > 10 | > 10 |  |  | < 1 µM |  |  |  |  |  |
| COC(C)CCC(C)C1CCC2C3CC(O)C4CC(O)CCC4(C)C3CCC12C (stereo not shown) [OR-12872, 17-(4-Methoxy-1-methyl-pentyl)-10,13-dimethyl-hexadecahydro-cyclopenta[a]phenanthrene-3,6-diol] |  | > 10 | > 10 | > 10 |  |  |  |  |  |  |  | 0.44 |
